According to US12467927B2, “Fluorescence resonance energy transfer (FRET) nanoprobe and preparation method and use thereof” (QILU UNIVERSITY OF TECHNOLOGY, priority 2022, dated 2025):

Experiment: Zeta potential determination
Type: physicochemical
Experimental: Size and Zeta potential determinations were conducted on a Zetasizer Nano ZS (ZEN 3600, Malvern Instruments Ltd.). Transmission electron microscopy (TEM) images were determined by a transmission electron microscope (JEM-2100, JEOL). The fluorescence was measured by an F-4600 Fluorescence Spectrophotometer (Japan); the confocal fluorescence images of cells were obtained by a Nikon laser confocal microscope (Nikon, Japan).
The synthesized HMSN were characterized by TEM and dynamic light scattering (DLS). […] Meanwhile, the particle size distribution measured by DLS was mainly around 140 nm (FIG. 2). The experimental data was matched up with each other. […] The particle size of PAMAM (G=1.5) dendrimer was characterized by TEM. […] The particle size distribution measured by DLS was around 8 nm (FIG. 5). […] Meanwhile, to prevent the early leakage of DOX, the DOX was encapsulated by the RVRR peptide and PAMAM/TPE. To verify the successful encapsulation of HMSN/DOX, TEM characterization was conducted. […] Characterized by DLS and Zeta potential, the particle size distribution of the transparent thin layer structure was around 160 nm (FIG. 7), and a Zeta potential was 3.25 mV (FIG. 8).

| zeta potential [mV] | SMILES |
| --- | --- |
| 24.3 | COc1cccc2c1C(=O)c1c(O)c3c(c(O)c1C2=O)C[C@@](O)(C(=O)CO)C[C@@H]3O[C@H]1C[C@H](N)[C@H](O)[C@H](C)O1 [DOX, doxorubicin] |
| −8.6 | O=C(O)c1ccc(C(=C(c2ccccc2)c2ccccc2)c2ccccc2)cc1 [TPE-COOH, 1-(4-carboxyphenyl)-1,2,2-triphenylethylene] |
